Source: patent US20240252472A1, “COMBINATIONS FOR TREATING CANCER” (Purdue Pharma L.P., priority 2023, published 2024)

Key:
Type in all cases: in vivo
MM1S-luc derived tumors = assay: Disseminated human myeloma model, CB17-SCID mice; conditions: EDO-S101 15 mg/kg i.v. weekly, daratumumab 8 mg/kg i.p. weekly, 4 weeks; vehicle 33 days
Procedure: MM1S-luc cells (3×10^6) were injected intravenously (i.v.) into CB17-SCID mice which were determined to have normal NK cells, monocytes and granulocytes (The Jackson Laboratory, Bar Harbor, ME, USA). Tumor development was monitored by non-invasive bioluminescence imaging (BLI) with a Xenogen IVIS 50 system (Caliper Life Sciences, Hopkinton, MA, USA). Mice were randomized into four groups (n=5/group): one receiving vehicle (i.v., weekly), another group receiving EDO-S101 (15 mg/kg i.v., weekly on Tuesdays), another group receiving daratumumab (8 mg/kg i.p., weekly on Wednesdays) and the last group receiving the double combination of EDO-S101+daratumumab. Both drugs were administered over a period of 4 weeks.
CB17-SCID mice bearing MM1S-luc derived tumors were treated with EDO-S101, daratumumab, a combination thereof, or vehicle, in accordance with the methods outlined above. MM1S-Luc cells (3×10^6) were intravenously injected into CB17-SCID mice. After 2 weeks, mice were randomized into four groups: one receiving vehicle (i.v., weekly), another group receiving EDO-S101 (15 mg/kg i.v., weekly on Tuesdays), another group receiving daratumumab (8 mg/kg i.p., weekly on Wednesdays) and the last group received the double combination of EDO-S101+daratumumab. Survival of mice analyzed with a Kaplan-Meier curve. Both drugs were administered over a period of 4 weeks.

[1] = tested on: subcutaneous plasmacytoma derived from MM.1S cells; assay: First subcutaneous plasmacytoma model, NSG mice with human NK cells; conditions: EDO-S101 30 mg/kg i.v. weekly, daratumumab 8 mg/kg i.p. weekly, 4 weeks; vehicle 30 days
Procedure: For the first subcutaneous human plasmacytoma model, NSG mice (Charles River Laboratories, Wilmington, MA, USA) were subcutaneously inoculated into the right flank with 3×10^6 MM1S in 100 μL RPMI 1640 medium and 100 μL of Matrigel (BD Biosciences). When tumors developed, mice were injected with human NK cells isolated from buffy coats from healthy donors and randomized (4 mice/group) to receive: EDO-S101 (30 mg/kg, iv weekly), daratumumab (8 mg/kg, ip weekly), a combination thereof, or vehicle (PBS vehicle solution with 15% HPBCD, 1.5% acetic acid, and 1.25% NaHCO3). Both, NK cells and the treatments were administered over four consecutive weeks. Caliper measurements of the tumor diameters were performed three times a week, and the tumor volume was estimated as the volume of a 3D ellipse using the following formula: V=4/3π×(a/2)×(b/2)^2, where “a” and “b” correspond to the longest and shortest diameter, respectively. Animals were killed when their tumors reached 2 cm. Differences in tumor volumes between control and treated groups were evaluated using one-way analysis of variance and Dunn's post-hoc tests. […]

[2] = tested on: subcutaneous plasmacytoma derived from MM1.S cells; assay: Second subcutaneous plasmacytoma model, CB17-SCID mice; conditions: EDO-S101 30 mg/kg i.v. weekly, daratumumab 8 mg/kg i.p. weekly, 4 weeks; vehicle 34 days
Source text: For the second subcutaneous human plasmacytoma model, CB17-SCID mice (The Jackson Laboratory) were used. CB17-SCID mice were randomised into groups (n=5). The design of the experiment (treatment doses and time schedule) was identical to the experiment described above with NSG mice except for the inoculation of NK cells, since CB17-SCID mice have their own functional NK cells.
For the second subcutaneous human plasmacytoma model, CB17-SCID mice (20 female mice, 5-6 weeks old; from The Jackson Laboratory) were used. The design of the experiment (treatment doses and time schedule) was identical to the one performed with NSG mice except for the inoculation of human NK cells, since CB17-SCID mice hold their own functional NK cells (Dorshkind et al., J Immunol 134:3798-3801, 1985).
In the second xenograft plasmacytoma model, CB17-SCID mice bearing a subcutaneous plasmacytoma derived from MM1.S cells were randomized to receive vehicle, daratumumab, EDO-S101 or the double combination. Mice were treated with EDO-S101 on Mondays and daratumumab was administered on Tuesdays. […] Furthermore, statistical differences in survival were also found between the combination vs vehicle (58 days±2.739 vs 34 days±2.191 days, respectively; p=0.003).

“daratumumab: anti-CD38 monoclonal antibody clinically approved for multiple myeloma [reference compound]” gave a median survival (MM1S-luc derived tumors) of 59 days, a median survival [1] of 34 days and an overall median survival [2] of 41 days.
